Article PMC11562961, “An activity-based probe for antimicrobial target DXP synthase, a thiamin diphosphate-dependent enzyme” (Frontiers in chemical biology, 2024)

Target: T1, 1-deoxy-D-xylulose 5-phosphate synthase (DXPS) (Escherichia coli, UniProt P77488)
T1 construct: gene dxs
T1 sequence (P77488 2-620): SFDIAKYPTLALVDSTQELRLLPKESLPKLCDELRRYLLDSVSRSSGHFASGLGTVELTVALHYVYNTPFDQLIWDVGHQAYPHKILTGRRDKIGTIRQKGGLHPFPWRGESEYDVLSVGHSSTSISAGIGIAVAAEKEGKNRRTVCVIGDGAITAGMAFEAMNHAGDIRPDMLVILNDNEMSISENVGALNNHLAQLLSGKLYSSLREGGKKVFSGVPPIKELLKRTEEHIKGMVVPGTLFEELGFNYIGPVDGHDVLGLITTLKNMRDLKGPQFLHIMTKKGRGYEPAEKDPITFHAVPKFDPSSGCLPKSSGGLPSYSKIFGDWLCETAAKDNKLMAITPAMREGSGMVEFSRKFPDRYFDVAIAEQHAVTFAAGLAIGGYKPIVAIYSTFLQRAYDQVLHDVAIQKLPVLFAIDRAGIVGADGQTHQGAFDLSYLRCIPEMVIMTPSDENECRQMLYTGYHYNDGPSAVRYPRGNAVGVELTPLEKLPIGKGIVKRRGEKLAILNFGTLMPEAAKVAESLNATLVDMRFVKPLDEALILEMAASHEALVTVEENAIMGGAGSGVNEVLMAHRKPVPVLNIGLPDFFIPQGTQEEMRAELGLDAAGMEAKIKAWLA
Assay: DXPS-IspC coupled assay (Morrison Ki); also CD detection of the PLThDP adduct and photo-crosslink in-gel fluorescence labeling
Type: biochemical

Structure (SMILES): C#CCCC1(CCOP(=O)(O)C(C)=O)N=N1 [compound 1, ABP 1]
- Ki: 1600 ± 220 nM
